Laboratory results from ChEMBL document CHEMBL1201862, “PubChem BioAssay data set” (2004).
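Exposure lasted 48 hours, with cells grown in 96-well plates and compounds tested at five concentrations. GI50 marks 50% less growth.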 Activity calls are given as the source filed them. Rule as the data show it: active = GI50 up to about 1.1 µM and inactive = higher.

How the values were obtained:
Assay in all cases: growth of human tumour cells (NCI), 48 h
786-0 = test system: 786-0
A498 = test system: A498
A549 = test system: A549
ACHN = test system: ACHN
BT-549 = test system: BT-549
CAKI-1 = test system: CAKI-1
CCRF-CEM = test system: CCRF-CEM
COLO 205 = test system: COLO 205
DU-145 = test system: DU-145
EKVX = test system: EKVX
HCC 2998 = test system: HCC 2998
HCT-116 = test system: HCT-116
HCT-15 = test system: HCT-15
HL-60 = test system: HL-60
HOP-62 = test system: HOP-62
HOP-92 = test system: HOP-92
HT-29 = test system: HT-29
Hs-578T = test system: Hs-578T
IGROV-1 = test system: IGROV-1
K562 = test system: K562
KM12 = test system: KM12
LOX IMVI = test system: LOX IMVI
M14 = test system: M14
MCF7 = test system: MCF7
MDA-MB-231 = test system: MDA-MB-231
MDA-MB-435 = test system: MDA-MB-435
MDA-N = test system: MDA-N
MOLT-4 = test system: MOLT-4
NCI-H226 = test system: NCI-H226
NCI-H23 = test system: NCI-H23
NCI-H460 = test system: NCI-H460
NCI-H522 = test system: NCI-H522
NCI/ADR-RES = test system: NCI/ADR-RES
OVCAR-3 = test system: OVCAR-3
OVCAR-4 = test system: OVCAR-4
OVCAR-5 = test system: OVCAR-5
OVCAR-8 = test system: OVCAR-8
PC-3 = test system: PC-3
RPMI-8226 = test system: RPMI-8226
SF-268 = test system: SF-268
SF-295 = test system: SF-295
SF-539 = test system: SF-539
SK-MEL-28 = test system: SK-MEL-28
SK-MEL-2 = test system: SK-MEL-2
SK-MEL-5 = test system: SK-MEL-5
SK-OV-3 = test system: SK-OV-3
SN12C = test system: SN12C
SNB-19 = test system: SNB-19
SNB-75 = test system: SNB-75
SR = test system: SR
SW-620 = test system: SW-620
T47D = test system: T47D
TK-10 = test system: TK-10
U-251 = test system: U-251
UACC-257 = test system: UACC-257
UACC-62 = test system: UACC-62
UO-31 = test system: UO-31
Malme-3M = test system: Malme-3M

C[C@@H]1CC[C@@]2(OC1)O[C@H]1[C@@H](O)[C@H]3[C@@H]4CC[C@H]5C[C@@H](O[C@@H]6O[C@H](CO)[C@H](O[C@@H]7O[C@H](CO)C(O)[C@H](O[C@@H]8OC[C@@H](O)[C@H](O)[C@H]8O)[C@H]7O[C@@H]7O[C@H](CO)[C@H](O)[C@H](O[C@@H]8O[C@H](CO)[C@@H](O)[C@H](O)[C@H]8O)[C@H]7O)[C@H](O)[C@H]6O)[C@H](O)C[C@]5(C)[C@H]4CC[C@]3(C)[C@H]1[C@@H]2C (stereo not given in full) [DIGITONIN] was tested, and the GI50 (786-0) was 1.61 µM (inactive), the GI50 (A498) was 6.18 µM (inactive) and the GI50 (A549) was 2.17 µM (inactive). The GI50 (ACHN) was 1.52 µM (inactive), the GI50 (BT-549) was 1.63 µM (inactive) and the GI50 (CAKI-1) was 1.39 µM (inactive). The GI50 (CCRF-CEM) was 2.86 µM (inactive), the GI50 (COLO 205) was 1.68 µM (inactive) and the GI50 (DU-145) was 2.05 µM (inactive). For the same molecule, the GI50 (EKVX) was 3.13 µM (inactive), the GI50 (HCC 2998) was 1.66 µM (inactive) and the GI50 (HCT-116) was 1.95 µM (inactive). The GI50 (HCT-15) was 4.03 µM, the GI50 (HL-60) was 2.9 µM (inactive) and the GI50 (HOP-62) was 2.37 µM (inactive). The GI50 (HOP-92) was 4.74 µM (inactive), the GI50 (HT-29) was 3.51 µM (inactive) and the GI50 (Hs-578T) was 2.06 µM (inactive). For the same molecule, the GI50 (IGROV-1) was 2.83 µM (inactive), the GI50 (K562) was 3.08 µM (inactive) and the GI50 (KM12) was 2.12 µM (inactive). For the same molecule, the GI50 (LOX IMVI) was 3.42 µM (inactive), the GI50 (M14) was 12.4 µM (inactive) and the GI50 (MCF7) was 2.18 µM (inactive). For the same molecule, the GI50 (MDA-MB-231) was 2.48 µM (inactive), the GI50 (MDA-MB-435) was 11.2 µM (inactive) and the GI50 (MDA-N) was 3.33 µM (inactive). For the same molecule, the GI50 (MOLT-4) was 3.9 µM (inactive), the GI50 (NCI-H226) was 1.51 µM (inactive) and the GI50 (NCI-H23) was 2.26 µM (inactive). The GI50 (NCI-H460) was 1.94 µM (inactive), the GI50 (NCI-H522) was 2.06 µM (inactive) and the GI50 (NCI/ADR-RES) was 3.89 µM (inactive). The GI50 (OVCAR-3) was 1.55 µM (inactive), the GI50 (OVCAR-4) was 1.97 µM (inactive) and the GI50 (OVCAR-5) was 2.07 µM (inactive). The GI50 (OVCAR-8) was 2.02 µM (inactive), the GI50 (PC-3) was 2.57 µM (inactive) and the GI50 (RPMI-8226) was 3.15 µM (inactive). The GI50 (SF-268) was 2.09 µM (inactive), the GI50 (SF-295) was 1.82 µM (inactive) and the GI50 (SF-539) was 2.98 µM (inactive). For the same molecule, the GI50 (SK-MEL-28) was 2.61 µM (inactive), the GI50 (SK-MEL-2) was 3.37 µM (inactive) and the GI50 (SK-MEL-5) was 4.5 µM (inactive). For the same molecule, the GI50 (SK-OV-3) was 2.36 µM (inactive), the GI50 (SN12C) was 2.97 µM (inactive) and the GI50 (SNB-19) was 2.07 µM (inactive). For the same molecule, the GI50 (SNB-75) was 2.83 µM (inactive), the GI50 (SR) was 2.37 µM (inactive) and the GI50 (SW-620) was 5.52 µM (inactive). The GI50 (T47D) was 3 µM (inactive), the GI50 (TK-10) was 2.49 µM (inactive) and the GI50 (U-251) was 3.43 µM (inactive). The GI50 (UACC-257) was 8.38 µM (inactive), the GI50 (UACC-62) was 4 µM (inactive) and the GI50 (UO-31) was 1.94 µM (inactive).

In the case of O=C1c2ccccc2C(=O)N1n1c(Cc2ccccc2)n[nH]c1=O, the GI50 (786-0) is reported as > 100 µM (inactive), the GI50 (A498) is reported as > 100 µM (inactive) and the GI50 (A549) is reported as > 100 µM (inactive). For the same molecule, the GI50 (ACHN) was > 100 µM (inactive), the GI50 (BT-549) was > 100 µM (inactive) and the GI50 (CAKI-1) was > 100 µM (inactive). The GI50 (CCRF-CEM) was > 100 µM (inactive), the GI50 (COLO 205) was > 100 µM (inactive) and the GI50 (DU-145) was > 100 µM (inactive). The GI50 (EKVX) was > 100 µM (inactive), the GI50 (HCC 2998) was > 100 µM (inactive) and the GI50 (HCT-116) was > 100 µM (inactive). The GI50 (HCT-15) was greater than 100 µM, the GI50 (HOP-62) was > 100 µM (inactive) and the GI50 (HOP-92) was > 100 µM (inactive). For the same molecule, the GI50 (HT-29) was > 100 µM (inactive), the GI50 (Hs-578T) was > 100 µM (inactive) and the GI50 (IGROV-1) was > 100 µM (inactive). For the same molecule, the GI50 (K562) was > 100 µM (inactive), the GI50 (KM12) was > 100 µM (inactive) and the GI50 (LOX IMVI) was > 100 µM (inactive). The GI50 (M14) was > 100 µM (inactive), the GI50 (MCF7) was > 100 µM (inactive) and the GI50 (MDA-MB-231) was > 100 µM (inactive). For the same molecule, the GI50 (MDA-MB-435) was > 100 µM (inactive), the GI50 (MDA-N) was > 100 µM (inactive) and the GI50 (MOLT-4) was > 100 µM (inactive). For the same molecule, the GI50 (Malme-3M) was > 100 µM (inactive), the GI50 (NCI-H226) was > 100 µM (inactive) and the GI50 (NCI-H23) was > 100 µM (inactive). For the same molecule, the GI50 (NCI-H460) was > 100 µM (inactive), the GI50 (NCI/ADR-RES) was > 100 µM (inactive) and the GI50 (OVCAR-3) was > 100 µM (inactive). For the same molecule, the GI50 (OVCAR-4) was > 100 µM (inactive), the GI50 (OVCAR-5) was > 100 µM (inactive) and the GI50 (OVCAR-8) was > 100 µM (inactive). For the same molecule, the GI50 (PC-3) was > 100 µM (inactive), the GI50 (SF-295) was > 100 µM (inactive) and the GI50 (SF-539) was > 100 µM (inactive). For the same molecule, the GI50 (SK-MEL-28) was > 100 µM (inactive), the GI50 (SK-MEL-2) was > 100 µM (inactive) and the GI50 (SK-MEL-5) was > 100 µM (inactive). For the same molecule, the GI50 (SN12C) was > 100 µM (inactive), the GI50 (SNB-19) was > 100 µM (inactive) and the GI50 (SNB-75) was > 100 µM (inactive). For the same molecule, the GI50 (SR) was > 100 µM (inactive), the GI50 (SW-620) was > 100 µM (inactive) and the GI50 (T47D) was > 100 µM (inactive). The GI50 (TK-10) was > 100 µM (inactive), the GI50 (U-251) was > 100 µM (inactive) and the GI50 (UACC-257) was > 100 µM (inactive). The GI50 (UACC-62) was > 100 µM (inactive) and the GI50 (UO-31) was > 100 µM (inactive).
